Data on 23 compounds can be found in US8148391B2 (Cephalon, Inc., priority 2006, dated 2012).

Broadly, the pIC50 is the IC50 on a negative log10 scale, so that one unit is a factor of ten.

pIC50: −log10 of the molar value. Some results are limits rather than exact numbers.

The target of test [1] is T1, c-Met (cytoplasmic domain) (Homo sapiens, UniProt P08581).
T1 construct: 10 ng/mL c-Met (cytoplasmic domain, Invitrogen Corporation #PV3143); purchased Invitrogen Corporation PV3143
The test is described as follows: c-Met Kinase Assay (same methods as for ALK, with modifications). Conditions: 1 μM ATP (Km level), 10 ng/mL c-Met; read-out: cMet Activity (c-Met kinase inhibition, IC50 class). The class given is biochemical. In outline: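 Wells were coated with 10 μg/mL phospholipase C-γ substrate in TBS, and reactions were started with 10 ng/mL c-Met cytoplasmic domain and run at 37° C for 15 minutes. Phosphorylated product was detected with Eu-N1-labeled PT66 antibody. IC50 values came from sigmoidal variable-slope fits of percent inhibition versus log compound concentration.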

For test [2], the target named is T2, baculovirus-expressed ALK (Homo sapiens, UniProt Q9UM73).
T2 construct: host or cells: baculovirus expression system
The test is described as follows: ALK Kinase Assay (ELISA-type, time-resolved fluorescence). It is filed as biochemical. Conditions: 1 μM ATP (Km level), 30 ng/ml ALK, 37° C., 15 minutes; read-out: ALK Activity (ALK kinase inhibition, IC50 class). In outline:
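Substrate coating: phospholipase C-γ, 10 μg/mL in TBS. Kinase step: 30 ng/ml ALK, 15 min, 37° C. Detection and analysis: Eu-N1 PT66 antibody, with IC50 fitted as a sigmoidal variable-slope dose-response curve.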
Background: ELISA stands for enzyme-linked immunosorbent assay.

T1 sequence (P08581 956-1390 limits assumed): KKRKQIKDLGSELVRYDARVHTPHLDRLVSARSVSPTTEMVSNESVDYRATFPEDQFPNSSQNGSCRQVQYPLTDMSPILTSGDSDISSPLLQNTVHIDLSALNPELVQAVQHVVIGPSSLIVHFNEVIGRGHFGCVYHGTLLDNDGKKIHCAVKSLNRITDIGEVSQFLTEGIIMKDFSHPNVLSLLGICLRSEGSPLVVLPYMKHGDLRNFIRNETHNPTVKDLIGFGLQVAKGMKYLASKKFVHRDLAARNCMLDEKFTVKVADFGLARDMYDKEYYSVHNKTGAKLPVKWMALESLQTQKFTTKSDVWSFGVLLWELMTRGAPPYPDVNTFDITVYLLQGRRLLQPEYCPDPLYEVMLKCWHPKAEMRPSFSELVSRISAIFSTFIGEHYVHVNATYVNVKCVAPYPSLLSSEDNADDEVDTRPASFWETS
T2 sequence (Q9UM73 19-1620): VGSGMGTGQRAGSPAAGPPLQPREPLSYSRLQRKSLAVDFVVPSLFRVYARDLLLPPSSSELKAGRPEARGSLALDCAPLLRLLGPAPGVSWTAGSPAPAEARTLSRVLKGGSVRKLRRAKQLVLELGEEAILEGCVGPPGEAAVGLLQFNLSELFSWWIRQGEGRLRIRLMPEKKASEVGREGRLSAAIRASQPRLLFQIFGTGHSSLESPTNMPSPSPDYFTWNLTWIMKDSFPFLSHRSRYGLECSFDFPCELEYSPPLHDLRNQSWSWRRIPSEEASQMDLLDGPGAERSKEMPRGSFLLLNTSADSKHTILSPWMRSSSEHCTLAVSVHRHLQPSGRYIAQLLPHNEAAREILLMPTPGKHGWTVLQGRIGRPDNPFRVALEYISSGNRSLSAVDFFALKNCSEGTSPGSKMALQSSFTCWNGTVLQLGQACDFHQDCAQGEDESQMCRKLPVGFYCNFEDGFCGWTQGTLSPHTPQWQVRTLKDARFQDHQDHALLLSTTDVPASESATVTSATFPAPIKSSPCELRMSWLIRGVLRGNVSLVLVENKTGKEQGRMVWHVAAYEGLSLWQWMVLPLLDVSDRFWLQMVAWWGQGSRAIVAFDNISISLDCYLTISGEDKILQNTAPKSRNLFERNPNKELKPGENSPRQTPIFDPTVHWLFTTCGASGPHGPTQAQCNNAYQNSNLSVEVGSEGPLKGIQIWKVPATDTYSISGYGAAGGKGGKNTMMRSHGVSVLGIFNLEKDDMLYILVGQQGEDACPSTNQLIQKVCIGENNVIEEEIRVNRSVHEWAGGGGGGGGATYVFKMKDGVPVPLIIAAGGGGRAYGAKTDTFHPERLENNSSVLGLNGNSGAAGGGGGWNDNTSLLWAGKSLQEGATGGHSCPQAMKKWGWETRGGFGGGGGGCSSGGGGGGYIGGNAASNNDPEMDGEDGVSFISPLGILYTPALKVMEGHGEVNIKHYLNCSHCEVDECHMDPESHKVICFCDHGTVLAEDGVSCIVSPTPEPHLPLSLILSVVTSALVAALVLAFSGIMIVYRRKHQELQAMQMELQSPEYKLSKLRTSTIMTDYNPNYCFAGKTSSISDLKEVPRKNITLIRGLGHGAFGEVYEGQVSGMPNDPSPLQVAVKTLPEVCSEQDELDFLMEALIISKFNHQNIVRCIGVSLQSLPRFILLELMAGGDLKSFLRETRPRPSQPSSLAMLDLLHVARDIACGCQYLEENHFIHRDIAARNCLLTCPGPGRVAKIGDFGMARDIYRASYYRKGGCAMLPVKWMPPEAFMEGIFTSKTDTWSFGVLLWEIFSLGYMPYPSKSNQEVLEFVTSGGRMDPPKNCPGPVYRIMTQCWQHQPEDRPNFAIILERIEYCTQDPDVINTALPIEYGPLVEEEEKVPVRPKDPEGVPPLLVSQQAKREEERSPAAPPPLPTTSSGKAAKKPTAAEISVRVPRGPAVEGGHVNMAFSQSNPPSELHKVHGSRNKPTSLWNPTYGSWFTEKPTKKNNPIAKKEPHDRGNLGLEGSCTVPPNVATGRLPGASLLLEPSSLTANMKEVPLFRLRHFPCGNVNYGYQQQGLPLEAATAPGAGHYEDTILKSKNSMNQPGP

Take `COc1cc2c(cc1Nc1ncc(Cl)c(N[C@@H]3CCCC[C@H]3NS(C)(=O)=O)n1)CCN(C(CF)CF)CC2` [Example 1392, ((1R,2R)-2-{5-Chloro-2-[3-(2-fluoro-1-fluoromethyl-ethyl)-8-methoxy-2,3,4,5-tetrahydro-1H-benzo[d]azepin-7-ylamino]-pyrimidin-4-ylamino}-cyclohexyl)-methanesulfonamide]: the pIC50 is under 5.00 in test [1] and over 7.00 in test [2].

With `COc1cc2c(cc1Nc1ncc(Cl)c(Nc3ccccc3S(=O)(=O)N(C)C)n1)CCN(C(CF)CF)CC2` [Example 1393, {5-Chloro-2-[3-(2-fluoro-1-fluoromethyl-ethyl)-8-methoxy-2,3,4,5-tetrahydro-1H-benzo[d]azepin-7-ylamino]-pyrimidin-4-ylamino}-N,N-dimethyl-benzenesulfonamide], the pIC50 in test [1] was under 5.00; in test [2] it was over 7.00.

Turning to `COc1cc2c(cc1Nc1ncc(Cl)c(Nc3ccccc3S(=O)(=O)C(C)C)n1)CCN(C(CF)CF)CC2` [Example 1394, Chloro-N(2)-[3-(2-fluoro-1-fluoromethyl-ethyl)-8-methoxy-2,3,4,5-tetrahydro-1H-benzo[d]azepin-7-yl]-N(4)-[2-(propane-2-sulfonyl)-phenyl]-pyrimidine-2,4-diamine], the pIC50 was under 5.00 in test [1] and over 7.00 in test [2].

On to `CCOC(=O)c1ccccc1Nc1nc(Nc2ccc3c(c2)CCN(CCOC)CC3)ncc1Cl` [Example 1395, {5-Chloro-2-[3-(2-methoxy-ethyl)-2,3,4,5-tetrahydro-1H-benzo[d]azepin-7-ylamino]-pyrimidin-4-ylamino}-benzoic acid ethyl ester], for which the pIC50 was 6.00 to 7.00 in test [1] and over 7.00 in test [2].

For `COCCN1CCc2ccc(Nc3ncc(Cl)c(Nc4ccccc4C(=O)NCC(C)C)n3)cc2CC1` [Example 1396, {5-Chloro-2-[3-(2-methoxy-ethyl)-2,3,4,5-tetrahydro-1H-benzo[d]azepin-7-ylamino]-pyrimidin-4-ylamino}-N-isobutyl-benzamide], the negative-log IC50 (pIC50) in test [1] is 6.00 to 7.00; in test [2] it was over 7.00.

For `COCCN1CCc2ccc(Nc3ncc(Cl)c(Nc4ccccc4C(=O)NCCN(C)C)n3)cc2CC1` [Example 1397, {5-Chloro-2-[3-(2-methoxy-ethyl)-2,3,4,5-tetrahydro-1H-benzo[d]azepin-7-ylamino]-pyrimidin-4-ylamino}-N-(2-dimethylamino-ethyl)-benzamide], the pIC50 in test [1] and in test [2] was 6.00 to 7.00 in each case.

Take `COCCNC(=O)c1ccccc1Nc1nc(Nc2ccc3c(c2)CCN(CCOC)CC3)ncc1Cl` [Example 1398, {5-Chloro-2-[3-(2-methoxy-ethyl)-2,3,4,5-tetrahydro-1H-benzo[d]azepin-7-ylamino]-pyrimidin-4-ylamino}-N-(2-methoxy-ethyl)-benzamide]: the figures for the pIC50 in test [1] and in test [2] were 5.00 to 6.00 and over 7.00, respectively.

On to `COCCCNC(=O)c1ccccc1Nc1nc(Nc2ccc3c(c2)CCN(CCOC)CC3)ncc1Cl` [Example 1399, {5-Chloro-2-[3-(2-methoxy-ethyl)-2,3,4,5-tetrahydro-1H-benzo[d]azepin-7-ylamino]-pyrimidin-4-ylamino}-N-(3-methoxy-propyl)-benzamide], for which the pIC50 in test [1] is 5.00 to 6.00; in test [2], over 7.00.

Consider `COCCN1CCc2ccc(Nc3ncc(Cl)c(Nc4ccccc4C(=O)NCCCCN(C)C)n3)cc2CC1` [Example 1400, {5-Chloro-2-[3-(2-methoxy-ethyl)-2,3,4,5-tetrahydro-1H-benzo[d]azepin-7-ylamino]-pyrimidin-4-ylamino}-N-(4-dimethylamino-butyl)-benzamide], for which the negative-log IC50 (pIC50) was 5.00 to 6.00 in test [1] and 6.00 to 7.00 in test [2].

With `COCCN1CCc2ccc(Nc3ncc(Cl)c(Nc4ccccc4C(=O)NCCCN(C)C)n3)cc2CC1` [Example 1401, 2-{5-Chloro-2-[3-(2-methoxy-ethyl)-2,3,4,5-tetrahydro-1H-benzo[d]azepin-7-ylamino]-pyrimidin-4-ylamino}-N-(3-dimethylamino-propyl)-benzamide], the pIC50 in test [1] and in test [2] was 6.00 to 7.00 throughout.

Consider `COCCN1CCc2ccc(Nc3ncc(Cl)c(Nc4ccccc4C(=O)NCCN4CCN(C)CC4)n3)cc2CC1` [Example 1402, 2-{5-Chloro-2-[3-(2-methoxy-ethyl)-2,3,4,5-tetrahydro-1H-benzo[d]azepin-7-ylamino]-pyrimidin-4-ylamino}-N-[2-(4-methyl-piperazin-1-yl)-ethyl]-benzamide], for which the pIC50 is 5.00 to 6.00 in test [1] and 6.00 to 7.00 in test [2].

`C#CCNC(=O)c1cccc(F)c1Nc1nc(Nc2ccc3c(c2)CCN(CCOC)CC3)ncc1Cl` [Example 1403, 2-{5-Chloro-2-[3-(2-methoxy-ethyl)-2,3,4,5-tetrahydro-1H-benzo[d]azepin-7-ylamino]-pyrimidin-4-ylamino}-3-fluoro-N-prop-2-ynyl-benzamide]: the pIC50 in test [1] and in test [2] was over 7.00 throughout.

In the case of `C#CCNC(=O)c1cccc(F)c1Nc1nc(Nc2ccc3c(c2)NC(=O)CCC3)ncc1Cl` [Example 1404, 2-[5-Chloro-2-(2-oxo-2,3,4,5-tetrahydro-1H-benzo[b]azepin-8-ylamino)-pyrimidin-4-ylamino]-3-fluoro-N-prop-2-ynyl-benzamide], the negative logarithm of the IC50 (pIC50) in test [1] and in test [2] was 6.00 to 7.00 throughout.

With `C#CCNC(=O)c1cccc(F)c1Nc1nc(Nc2ccc3c(c2)N(CC)C(=O)CCC3(C)C)ncc1Cl` [Example 1405, 2-[5-Chloro-2-(1-ethyl-5,5-dimethyl-2-oxo-2,3,4,5-tetrahydro-1H-benzo[b]azepin-8-ylamino)-pyrimidin-4-ylamino]-3-fluoro-N-prop-2-ynyl-benzamide], the pIC50 in test [1] was over 7.00; in test [2] it was 6.00 to 7.00.

As for `C#CCNC(=O)c1cccc(F)c1Nc1nc(Nc2ccc3c(c2)NC(=O)CCC3(C)C)ncc1Cl` [Example 1406, 2-[5-Chloro-2-(5,5-dimethyl-2-oxo-2,3,4,5-tetrahydro-1H-benzo[b]azepin-8-ylamino)-pyrimidin-4-ylamino]-3-fluoro-N-prop-2-ynyl-benzamide], the pIC50 was over 7.00 in test [1] and 6.00 to 7.00 in test [2].

In the case of `C#CCNC(=O)c1cccc(F)c1Nc1nc(Nc2ccc3c(c2)OCCCN3CC)ncc1Cl` [Example 1407, 2-[5-Chloro-2-(9-ethyl-6,7,8,9-tetrahydro-5-oxa-9-aza-benzocyclohepten-3-ylamino)-pyrimidin-4-ylamino]-3-fluoro-N-prop-2-ynyl-benzamide], the values for the pIC50 in test [1] and in test [2] were over 7.00 and 6.00 to 7.00, respectively.

For the compound `COCCN1CCc2ccc(Nc3ncc(Cl)c(Nc4ccccc4C(=O)OC)n3)cc2CC1` [Example 1408, 2-{5-Chloro-2-[3-(2-methoxy-ethyl)-2,3,4,5-tetrahydro-1H-benzo[d]azepin-7-ylamino]-pyrimidin-4-ylamino}-benzoic acid methyl ester], the negative-log IC50 (pIC50) was 6.00 to 7.00 in test [1] and over 7.00 in test [2].

Take `CCN1CCCOc2cc(Nc3ncc(Cl)c(Nc4ccsc4C(=O)NC)n3)ccc21` [Example 1409, 3-[5-Chloro-2-(9-ethyl-6,7,8,9-tetrahydro-5-oxa-9-aza-benzocyclohepten-3-ylamino)-pyrimidin-4-ylamino]-thiophene-2-carboxylic acid methyl amide]: the pIC50 in test [1] and in test [2] was 6.00 to 7.00 in each case.

Take `CCOC(=O)N1CCCOc2ccc(Nc3ncc(Cl)c(Nc4ccsc4C(=O)NC)n3)cc21` [Example 1411, 2-[5-Chloro-4-(2-methylcarbamoyl-thiophen-3-ylamino)-pyrimidin-2-ylamino]-7,8-dihydro-6H-5-oxa-9-aza-benzocycloheptene-9-carboxylic acid ethyl ester]: the results for the pIC50 in test [1] and in test [2] were 5.00 to 6.00 and 6.00 to 7.00, respectively.

Take `CNC(=O)c1cc(N(C)C)ccc1Nc1nc(Nc2ccc3c(c2)NC(=O)CCC3)ncc1Cl` [Example 1412, 2-[5-Chloro-2-(2-oxo-2,3,4,5-tetrahydro-1H-benzo[b]azepin-8-ylamino)-pyrimidin-4-ylamino]-5-dimethylamino-N-methyl-benzamide]: the negative logarithm of the IC50 (pIC50) in test [1] and in test [2] was 6.00 to 7.00 in each case.

With `CNC(=O)c1cc(N(C)C)ccc1Nc1nc(Nc2ccc3c(c2)CCN(CCOC)CC3)ncc1Cl` [Example 1413, 2-{5-Chloro-2-[3-(2-methoxy-ethyl)-2,3,4,5-tetrahydro-1H-benzo[d]azepin-7-ylamino]-pyrimidin-4-ylamino}-5-dimethylamino-N-methyl-benzamide], the results for the pIC50 in test [1] and in test [2] were 6.00 to 7.00 and over 7.00, respectively.

With `CNC(=O)c1cc(Br)cc(F)c1Nc1nc(Nc2ccc3c(c2)NC(=O)CCC3)ncc1Cl` [Example 1414, 5-Bromo-2-[5-chloro-2-(2-oxo-2,3,4,5-tetrahydro-1H-benzo[b]azepin-8-ylamino)-pyrimidin-4-ylamino]-3-fluoro-N-methyl-benzamide], the pIC50 in test [1] is over 7.00; in test [2] it was 6.00 to 7.00.

In the case of `CNC(=O)c1cc(Br)cc(F)c1Nc1nc(Nc2ccc3c(c2)CCN(CCOC)CC3)ncc1Cl` [Example 1415, 5-Bromo-2-{5-chloro-2-[3-(2-methoxy-ethyl)-2,3,4,5-tetrahydro-1H-benzo[d]azepin-7-ylamino]-pyrimidin-4-ylamino}-3-fluoro-N-methyl-benzamide], the pIC50 in test [1] and in test [2] was over 7.00 each time.
